Experimental findings from patent US9211349B2, “Molecular probes for multimodality imaging of anionic membrane surfaces” (Molecular Targeting Technologies, Inc., priority 2012, dated 2015) are described below.

This assay deals with U87MG cells. As to the kind of experiment: MTT assay, cytotoxicity of paclitaxel on U87MG cells. Type of assay: cell-based, human. Here is the method:
A U87MG human glioblastoma cell line was obtained from the American Type Culture Collection (Manassas, Va., USA). U87MG glioma cells were grown in Dulbecco's modified medium (USC Cell Culture Core, Los Angeles, Calif., USA) supplemented with 10% fetal bovine serum at 37° C. in humidified atmosphere containing 5% CO2.
The toxicity of paclitaxel to U87MG cells was determined by a colorimetric assay with 3-(4,5-dimethylthiazol-2-yl)-2,5-diphenyl tetrazolium bromide (MTT; Alfa Aesar). All studies were performed with triplicate samples and repeated at least three times. Briefly, cells were harvested by trypsinization, resuspended in Dulbecco's modified medium, and plated in a 96-well plate at 4,000 cells per well. After treatment with different doses of paclitaxel (ranging from 1 nM to 500 nM) for 16 hours, 22 μL of 0.5 mg/mL sterile filtered MTT was added to each well. The un-reacted dye was removed after 4 hours of incubation, and the insoluble formazan crystals were dissolved in 150 μL of DMSO. The absorbance at 490 nm was measured with a microplate reader (SpectraMax M2e, Molecular Devices, CA).
FIG. 3 is a graph illustrating cytotoxicity of paclitaxel on U87MG cells determined by MTT assay. The best-fit 50% inhibitory concentration (IC50) values were calculated by fitting the data with nonlinear regression using Graph-Pad Prism 5.0 (Graph-Pad Software, San Diego, Calif.).
A general note: Tetrazolium dyes change colour on reduction, which living cells bring about.

By IC50 is commonly meant the midpoint of a concentration-inhibition curve. Low readings indicate greater potency in that assay, high ones weaker potency in that assay. In the case of `CC(=O)O[C@H]1C(=O)[C@@]2(C)[C@H]([C@H](OC(=O)c3ccccc3)[C@]3(O)C[C@H](OC(=O)[C@H](O)[C@@H](NC(=O)c4ccccc4)c4ccccc4)C(C)=C1C3(C)C)[C@]1(OC(C)=O)CO[C@@H]1C[C@@H]2O` [paclitaxel], the “sensitivity of U87MG cells to treatment” value (1 nM to 500 nM, 16 hours) was “sensitive”. Under “Homo sapiens, U-87 MG, after 16 hours of incubation”, this molecule had an IC50 of 0.0614 µM.
